Values of other authors, collected in patent publication US20130130972A1, “ARTIFICIAL SWEETNERS AND PERFORMANCE” (priority 2010, published 2013).
Where a SMILES comes first, the peptide text is derived from it.

Details: typically perceived sweetness, relative to sugar

## OC[C@@H](O)[C@@H](O[C@@H]1O[C@H](CO)[C@H](O)[C@H](O)[C@H]1O)[C@H](O)[C@@H](O)CO [Lactitol]
  Sweetness by weight compared to sugar: 0.4×

## OC[C@@H](O)[C@@H](O)[C@H](O)[C@@H](O)CO [Sorbitol]
  Sweetness by weight compared to sugar: 0.6×

## OCC(O)CO [Glycerol]
  Sweetness by weight compared to sugar: 0.6×

## OC[C@@H](O)[C@@H](O)CO [Erythritol]
  Sweetness by weight compared to sugar: 0.7×

## O=C1NS(=O)(=O)c2ccccc21 [Saccharin]
  Sweetness by weight compared to sugar: 300×

## Pentadin
  Sweetness by weight compared to sugar: 500×

## Mabinlin [Mabinlin Protein]
  Sweetness by weight compared to sugar: 100×

## CCCOc1ccc([N+](=O)[O-])cc1N [P-4000]
  Sweetness by weight compared to sugar: 4000×

## COC(=O)[C@H](Cc1ccccc1)NC(=O)[C@H](CC(=O)O)NCCC(C)(C)C [Neotame]
  Sweetness by weight compared to sugar: 8000×

## OC[C@H]1O[C@H](O[C@]2(CCl)O[C@H](CCl)[C@@H](O)[C@@H]2O)[C@H](O)[C@@H](O)[C@H]1Cl [Sucralose]
  Sweetness by weight compared to sugar: 600×

## CC1(C)[C@@H](O[C@H]2O[C@H](C(=O)O)[C@@H](O)[C@H](O)[C@H]2O[C@@H]2O[C@H](C(=O)O)[C@@H](O)[C@H](O)[C@H]2O)CC[C@]2(C)[C@H]3C(=O)C=C4[C@@H]5C[C@@](C)(C(=O)O)CC[C@]5(C)CC[C@@]4(C)[C@]3(C)CC[C@@H]12 [Glycyrrhizin]
  Sweetness by weight compared to sugar: 50×

## Brazzein (QDKCKKVYENYPVSKCQLANQCNYDCKLDKHARSGECFYDEKRNLQCICDYCEY; UniProt P56552 1-54, looked up) [natural sugar substitute]
  Sweetness by weight compared to sugar: 800×

## OC[C@@H](O)[C@@H](O)[C@H](O)[C@H](O)CO [Mannitol]
  Sweetness by weight compared to sugar: 0.5×

## OC[C@@H](O)[C@@H](O[C@H]1O[C@H](CO)[C@@H](O)[C@H](O)[C@H]1O)[C@H](O)[C@@H](O)CO [Maltitol]
  Sweetness by weight compared to sugar: 0.9×

## COc1ccc(CCC(=O)c2c(O)cc(O[C@@H]3O[C@H](CO)[C@@H](O)[C@H](O)[C@H]3O[C@@H]3O[C@@H](C)[C@H](O)[C@@H](O)[C@H]3O)cc2O)cc1O [Neohesperidin dihydrochalcone]
  Sweetness by weight compared to sugar: 1500×

## CC1=CC(=O)NS(=O)(=O)O1.COC(=O)[C@H](Cc1ccccc1)NC(=O)[C@@H](N)CC(=O)O [Salt of aspartame-acesulfame] (H-Asp-Phe-OMe)
  Sweetness by weight compared to sugar: 350×

## Glucin
  Sweetness by weight compared to sugar: 300×

## Monellin
  Sweetness by weight compared to sugar: 3000×

## OC[C@@H](O)[C@H](O)[C@@H](O)CO [Xylitol]
  Sweetness by weight compared to sugar: 1.0×

## CCOc1ccc(NC(N)=O)cc1 [Dulcin]
  Sweetness by weight compared to sugar: 250×

## Curculin
  Sweetness by weight compared to sugar: 550×

## O=C(CO)[C@@H](O)[C@@H](O)[C@H](O)CO [Tagatose]
  Sweetness by weight compared to sugar: 0.92×

## Thaumatin
  Sweetness by weight compared to sugar: 2000×

## COC(=O)[C@H](Cc1ccccc1)NC(=O)[C@@H](N)CC(=O)O [Aspartame] (H-Asp-Phe-OMe)
  Sweetness by weight compared to sugar: 160-200×

## CC1=CC(=O)NS(=O)(=O)O1 [Acesulfame potassium]
  Sweetness by weight compared to sugar: 200×

## C[C@@H](NC(=O)[C@@H](N)CC(=O)O)C(=O)NC1C(C)(C)SC1(C)C [Alitame]
  Sweetness by weight compared to sugar: 2.000×
